These results are taken from article PMC6934184, “Selective DNA-PKcs inhibition extends the therapeutic index of localized radiotherapy and chemotherapy” (The Journal of Clinical Investigation, 2019).

Usually inhibition stands for the change of the read-out against control, counted positive when it falls.

For this test, the target named is T1, NEK6 (Homo sapiens, UniProt Q9HC98).
T1 construct: purchased Thermo Fisher Scientific (Life Technologies) SelectScreen
The test can be described thus: SelectScreen Z'LYTE. Format: biochemical. The method, boiled down:
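Percent values come from Thermo SelectScreen profiling of NU5455, combining activity and binding assays. CSF1R was run in Z'LYTE format at Km app ATP, and CAMK1 in Adapta format with ATP listed at 10.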

T1 sequence (Q9HC98 whole entry): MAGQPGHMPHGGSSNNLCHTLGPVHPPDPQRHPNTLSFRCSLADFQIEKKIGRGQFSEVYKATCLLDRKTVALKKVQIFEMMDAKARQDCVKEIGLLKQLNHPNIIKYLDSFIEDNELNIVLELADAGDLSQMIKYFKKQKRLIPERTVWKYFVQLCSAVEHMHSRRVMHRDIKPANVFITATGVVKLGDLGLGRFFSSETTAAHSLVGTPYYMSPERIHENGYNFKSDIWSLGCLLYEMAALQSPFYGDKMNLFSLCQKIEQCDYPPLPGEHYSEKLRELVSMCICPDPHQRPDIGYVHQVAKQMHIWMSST

With `CN(C(=O)CN1CCOCC1)c1ccc2sc3c(-c4cccc5c(=O)cc(N6CC7CCC(C6)O7)oc45)cccc3c2c1` [NU5455], the inhibition at 1 µM was -19.8%.
